Among the test systems are MDA-MB-231; MDA-MB-435; SK-OV-3; HCT-116; A498; TK-10; SN12C; SK-MEL-5; NCI-H226; Hs-578T; PC-3; SF-295; Malme-3M; SK-MEL-28; EKVX; HL-60; BT-549; MDA-N.
Assay in all cases: NCI tumour cell line growth inhibition, 48 h

Molecules are shown by their SMILES.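 Values below derive from 48-hour exposures of cells grown in 96-well plates, with endpoints linearly interpolated between the two concentrations bracketing the appropriate inhibition level. At the GI50, growth is halved.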 Calls of active or inactive are those of the source. Rule as the data show it: active = GI50 up to about 1.1 µM and inactive = higher. Some results are limits rather than exact numbers.

Take `C=CCC1(Sc2ccccn2)Sc2ccc3ccccc3c2-c2c(ccc3ccccc23)S1`: the GI50 in the assay with MDA-MB-231, in the assay with MDA-MB-435, in the assay with SK-OV-3, with HCT-116, in the assay with A498 and in the assay on TK-10 was > 100 µM (inactive) throughout. In addition, the GI50 in the assay on SN12C, in the assay with SK-MEL-5, in the assay with NCI-H226, in the assay with Hs-578T, with PC-3 and with SF-295 was > 100 µM (inactive) in each case. For the same compound, the GI50 with Malme-3M, with SK-MEL-28, in the assay on EKVX and in the assay on HL-60 was > 100 µM (inactive) each time.

For the compound `O=c1[nH]c2cc(C(F)(F)F)ccc2nc1Cc1ccccc1`, the GI50 was 30.8 µM (inactive) in the assay with MDA-MB-231; > 100 µM (inactive) in the assay with MDA-MB-435; 33 µM (inactive) with SK-OV-3; 71.6 µM (inactive) in the assay with HCT-116; 85.9 µM (inactive) in the assay with A498; > 100 µM (inactive) with TK-10. In addition, the GI50 is > 100 µM (inactive) in the assay on SK-MEL-5; > 100 µM (inactive) in the assay on NCI-H226; 34.9 µM (inactive) in the assay on Hs-578T; > 100 µM (inactive) with PC-3; 40.6 µM (inactive) with SF-295; > 100 µM (inactive) in the assay on BT-549. Further, the GI50 in the assay on SK-MEL-28, with EKVX and with HL-60 was > 100 µM (inactive) in each case.

`CCOC(=O)C1=C(C(=O)c2ccc(C)cc2)C(c2cccc([N+](=O)[O-])c2)C(C(=O)c2ccc(C)cc2)=C(C(=O)OCC)N1`: the GI50 was 13.9 µM (inactive) with MDA-MB-231; 16 µM (inactive) with MDA-MB-435; 5.92 µM (inactive) in the assay on SK-OV-3; 6.75 µM (inactive) in the assay on HCT-116; 17.2 µM (inactive) with TK-10; 17.6 µM (inactive) in the assay with SN12C. The GI50 was 17.8 µM (inactive) in the assay with SK-MEL-5; 19.1 µM (inactive) in the assay with NCI-H226; 22 µM (inactive) with Hs-578T; 23.2 µM (inactive) in the assay on PC-3; 16.1 µM (inactive) with SF-295; 21.1 µM (inactive) in the assay on BT-549. The GI50 was 15.1 µM (inactive) in the assay on Malme-3M, 17.8 µM (inactive) in the assay with SK-MEL-28, 24.1 µM (inactive) with EKVX and 29.8 µM (inactive) in the assay on HL-60.

With `COc1ccc(-c2nc(-c3cnccn3)n(C3OC(CO)C(O)C3O)n2)cc1` (stereo unspecified), the GI50 with MDA-MB-435, with SK-OV-3, in the assay on TK-10, in the assay with SN12C, with NCI-H226 and in the assay on PC-3 was > 10 µM (inactive) in each case. Further, the GI50 with SF-295, in the assay with BT-549, in the assay with Malme-3M, in the assay with EKVX and in the assay with HL-60 was > 10 µM (inactive) in each case.

For the compound `Nc1nc(N)c2nc(CNc3ccc(C(=O)NC(CCC(=O)O)C(=O)O)cc3F)cnc2n1` (stereo unspecified), the GI50 in the assay on MDA-MB-231 was > 57.9 µM (inactive); in the assay with MDA-MB-435, < 0.01 µM (active); in the assay with SK-OV-3 it was > 100 µM (inactive); in the assay on HCT-116 it was < 0.01 µM (active); in the assay on A498, < 0.01 µM (active); in the assay on TK-10, > 100 µM (inactive). Moreover, the GI50 in the assay on SN12C is < 0.01 µM (active); with SK-MEL-5, < 0.0128 µM (active); in the assay on NCI-H226, > 100 µM (inactive); in the assay with Hs-578T, > 100 µM (inactive); in the assay with SF-295, < 0.01 µM (active); in the assay on MDA-N, < 0.01 µM (active). Further, the GI50 with SK-MEL-28 was > 100 µM (inactive); with EKVX, < 0.01 µM (active); in the assay with HL-60, < 0.01 µM (active).

As for `CN1CN(c2ccccc2)C2(CCN(CCc3csc4ccccc34)CC2)C1=O`, the GI50 in the assay on MDA-MB-231 is > 10 µM (inactive); with MDA-MB-435, 14.4 µM (inactive); in the assay on SK-OV-3 it was 25.9 µM (inactive); in the assay with HCT-116 it was 11.3 µM (inactive); in the assay with TK-10 it was 14 µM (inactive); with SN12C, 15.6 µM (inactive). Further, the GI50 in the assay on SK-MEL-5 was 17.5 µM (inactive); with NCI-H226 it was 17.4 µM (inactive); in the assay with PC-3, 12 µM (inactive); with BT-549 it was 4.71 µM (inactive); in the assay on Malme-3M, 15 µM (inactive); with SK-MEL-28 it was 15.7 µM (inactive). Moreover, the GI50 with EKVX is 12.8 µM (inactive); with HL-60, 9.38 µM (inactive).

For the compound `COc1ccc(/N=N/c2c(C)c(C#N)c(=S)n(C3OC(COC(C)=O)C(OC(C)=O)C(OC(C)=O)C3OC(C)=O)c2-c2ccccc2)cc1` (stereo unspecified), the GI50 in the assay on MDA-MB-231 was 6.04 µM (inactive); in the assay with MDA-MB-435, 10.3 µM (inactive); in the assay on HCT-116, 4.32 µM (inactive); with A498 it was 1.5 µM (inactive); with TK-10, 19.2 µM (inactive); with SN12C, 7.96 µM (inactive). The GI50 in the assay with PC-3 is 5.98 µM (inactive); in the assay on SF-295, 5.85 µM (inactive); in the assay with BT-549, 5.33 µM (inactive); in the assay with MDA-N, 9.1 µM (inactive); in the assay with Malme-3M it was 7.23 µM (inactive); with SK-MEL-28, 7.98 µM (inactive). Besides, in the assay on HL-60, the GI50 is 3.13 µM (inactive).

Take `CCCCC/C(C=O)=C\c1ccccc1`: the GI50 with MDA-MB-231, with MDA-MB-435, in the assay on SK-OV-3, in the assay on HCT-116, with A498 and in the assay on TK-10 was > 100 µM (inactive) each time. Moreover, the GI50 in the assay with SK-MEL-5, in the assay with NCI-H226, in the assay with Hs-578T, in the assay on PC-3, in the assay with SF-295 and in the assay on BT-549 was > 100 µM (inactive) each time. Further, the GI50 in the assay with SK-MEL-28, with EKVX and in the assay on HL-60 was > 100 µM (inactive) each time.

Regarding `COc1ccc2c(c1)C1Oc3ccccc3CC1(O)CO2` (stereo unspecified), the GI50 with MDA-MB-231, with MDA-MB-435, in the assay with SK-OV-3, with HCT-116, in the assay on A498 and in the assay with TK-10 was > 100 µM (inactive) each time. The GI50 in the assay on SN12C, in the assay with SK-MEL-5, in the assay on NCI-H226, in the assay with PC-3, in the assay with SF-295 and in the assay on BT-549 was > 100 µM (inactive) each time. For the same compound, the GI50 in the assay on MDA-N, in the assay with Malme-3M and in the assay on EKVX was > 100 µM (inactive) in each case.

`CS/C(=N\S(=O)(=O)c1ccc(Cl)cc1)NCCCCN/C(=N/S(=O)(=O)c1ccc(Cl)cc1)SC`: the GI50 in the assay on MDA-MB-231 is > 100 µM (inactive); with MDA-MB-435, > 100 µM (inactive); in the assay on HCT-116, > 100 µM (inactive); in the assay with A498 it was 32.6 µM (inactive); with TK-10, > 100 µM (inactive); in the assay with SN12C it was > 100 µM (inactive). For the same compound, the GI50 was > 100 µM (inactive) in the assay with PC-3; > 100 µM (inactive) with SF-295; > 100 µM (inactive) with MDA-N; > 100 µM (inactive) with Malme-3M; 95.3 µM (inactive) with SK-MEL-28; > 100 µM (inactive) with EKVX. For the same compound, the GI50 with HL-60 is > 100 µM (inactive).

For the compound `CC(=O)OC1COC(n2nc(N)nc2C)C(OC(C)=O)C1OC(C)=O` (stereo unspecified), the GI50 in the assay with MDA-MB-231, with MDA-MB-435, in the assay with SK-OV-3, in the assay on HCT-116, with A498 and with TK-10 was > 100 µM (inactive) throughout. In addition, the GI50 in the assay with SN12C, with SK-MEL-5, with NCI-H226, in the assay with PC-3, with SF-295 and in the assay on BT-549 was > 100 µM (inactive) throughout. Further, the GI50 with MDA-N, in the assay with Malme-3M, in the assay with SK-MEL-28, in the assay on EKVX and in the assay on HL-60 was > 100 µM (inactive) in each case.

Regarding `CS/C(=N\C#N)NC1CC(n2cc(C)c(=O)[nH]c2=O)OC1CO` (stereo unspecified), the GI50 with MDA-MB-231, with MDA-MB-435, in the assay on SK-OV-3, in the assay with HCT-116, in the assay on A498 and with TK-10 was > 100 µM (inactive) in each case. The GI50 with SN12C, in the assay on SK-MEL-5, in the assay with NCI-H226, in the assay on PC-3, in the assay on SF-295 and in the assay on MDA-N was > 100 µM (inactive) in each case. The GI50 with Malme-3M, in the assay on SK-MEL-28, in the assay with EKVX and with HL-60 was > 100 µM (inactive) each time.

Turning to `O=C([O-])C(O)C(O)C(O)C(O)C(=O)O.[K+]` (stereo unspecified), the GI50 in the assay on MDA-MB-231, in the assay on MDA-MB-435, in the assay on SK-OV-3, in the assay on HCT-116, in the assay with A498 and with SN12C was > 100 µM (inactive) each time. Besides, the GI50 in the assay with SK-MEL-5, with NCI-H226, in the assay with PC-3, in the assay with SF-295, in the assay on MDA-N and in the assay with Malme-3M was > 100 µM (inactive) each time. The GI50 is > 100 µM (inactive) in the assay on SK-MEL-28, > 100 µM (inactive) in the assay on EKVX and 76.2 µM (inactive) in the assay with HL-60.

(Values after ChEMBL document CHEMBL1201862, “PubChem BioAssay data set” (2004).)
